Measured values from patent US10076522B2, “Systems and methods for treating bacterial infection” (priority 2016, dated 2018).
“Also recorded” adds a separate entry of the source.

How the values were obtained:
[1] = target: T1, hERG-mediated potassium current (Homo sapiens, UniProt Q12809); test: Inhibition of hERG-mediated potassium current in transfected CHO cells; assay type: cell-based; details: reversible inhibition
T1 construct: expressed in transfected cells; host or cells: CHO (Chinese Hamster Ovary) cells

[2] = PK of IV iclaprim in subjects with moderate hepatic impairment; assay type: in vivo, human; details: moderate hepatic impairment (Child-Pugh grade B)
Description: For example, the PK profile of 0.8 mg/kg iclaprim administered by IV was investigated in 8 subjects with mild to moderate obesity (body mass index or “BMI” 30-40) and in 8 subjects with severe obesity (BMI>40). […] Linear regression analysis indicated a strong linear relationship between AUC (and Cmax) and BMI. Thus it was clear that the body composition of the subject affected the pharmacokinetics of IV administered iclaprim, with a greater percentage of body fat causing an increase in AUC and Cmax. […] Thus there is a risk of overdosing subjects with moderate hepatic impairment, which can be mitigated by reducing the IV iclaprim dose by about 50%.

[3] = in vivo
cSSSIs = test: Phase III ASSIST trials, efficacy in cSSSI; assay type: in vivo, human; details: 0.8 mg/kg over 0.5 hr q12h IV
From the text: Without wishing to be bound by a particular theory, one observed disadvantage of the weight-based dosing in the previous Phase III studies is that the post-antibiotic effect achieved by the weight-based doses was not enough to sustain the T>MIC between doses. Sufficient efficacy might be achieved by increasing the amount of iclaprim administered to the subject. However, as discussed above, simply increasing the weight-based dose of iclaprim risks causing QTc prolongation.

[4] = 13-week toxicology study in the rat, AUC at NOAEL; details: in vivo

T1 sequence (Q12809 whole entry): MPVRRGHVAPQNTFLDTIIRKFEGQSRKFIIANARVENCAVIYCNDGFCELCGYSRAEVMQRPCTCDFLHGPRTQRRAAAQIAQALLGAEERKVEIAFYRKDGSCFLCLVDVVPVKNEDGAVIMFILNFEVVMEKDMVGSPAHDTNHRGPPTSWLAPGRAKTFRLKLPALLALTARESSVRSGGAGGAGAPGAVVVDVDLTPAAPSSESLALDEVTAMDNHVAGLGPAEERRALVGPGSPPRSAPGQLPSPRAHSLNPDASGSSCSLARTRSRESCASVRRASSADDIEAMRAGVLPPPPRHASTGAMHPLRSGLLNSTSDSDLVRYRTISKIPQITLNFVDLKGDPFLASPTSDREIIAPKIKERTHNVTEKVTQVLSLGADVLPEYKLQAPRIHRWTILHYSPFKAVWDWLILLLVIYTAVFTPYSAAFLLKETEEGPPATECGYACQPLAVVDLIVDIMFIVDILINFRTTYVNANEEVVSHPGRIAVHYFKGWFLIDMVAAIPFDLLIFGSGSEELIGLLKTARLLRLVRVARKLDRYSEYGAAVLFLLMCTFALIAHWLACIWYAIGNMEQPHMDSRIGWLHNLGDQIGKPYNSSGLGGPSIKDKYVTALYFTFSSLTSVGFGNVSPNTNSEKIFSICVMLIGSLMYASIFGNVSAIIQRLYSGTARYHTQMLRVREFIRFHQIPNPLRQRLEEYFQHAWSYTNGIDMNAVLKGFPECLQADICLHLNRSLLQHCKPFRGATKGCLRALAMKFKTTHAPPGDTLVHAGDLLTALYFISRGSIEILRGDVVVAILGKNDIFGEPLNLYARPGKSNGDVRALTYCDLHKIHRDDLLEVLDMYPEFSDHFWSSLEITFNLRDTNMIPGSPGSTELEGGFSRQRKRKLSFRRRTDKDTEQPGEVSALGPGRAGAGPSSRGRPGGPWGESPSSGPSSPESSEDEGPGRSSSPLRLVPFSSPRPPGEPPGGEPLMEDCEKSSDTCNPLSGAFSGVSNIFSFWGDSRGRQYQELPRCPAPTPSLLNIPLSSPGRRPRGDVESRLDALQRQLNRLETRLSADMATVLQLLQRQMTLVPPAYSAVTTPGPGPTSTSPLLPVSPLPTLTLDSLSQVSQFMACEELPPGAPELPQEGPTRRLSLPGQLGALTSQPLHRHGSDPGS

## COc1cc(Cc2cnc(N)nc2N)c2c(c1OC)OC(C1CC1)C=C2 (racemic) [Iclaprim]
[1]
  IC50: 900 nM
[2]
  increase in AUC: 2.5 fold
  increase in Cmax: 1.4 fold
[3]
  dose-related increase in QTc: did not
cSSSIs
  efficacy, non-inferiority (−10% margin) to linezolid: did not meet the FDA criteria of non-inferiority to linezolid; also recorded: failed to show efficacy
[4]; female
  AUC at 13 week: 20400 ng·h/mL
[4]; male
  AUC at 13 week: 7260 ng·h/mL
